Values joined by “and” are separate entries in the source; they are usually repeats but may differ in a detail not shown here. Equal values may be shown once. Read-outs that look alike come from different tables or passages of the source.
Tests used:
gravid mosquitoes = assay: Field studies, biphasic ADS; format: in vivo
Ae. albopictus [1] = assay: Green house assay, biphasic ADS; format: in vivo, Aedes albopictus
Protocol: (§1) Larval bioassays for pyriproxyfen were conducted in adult emergence units (450 ml plastic Deli containers lid on) under the standard laboratory conditions as described above under the heading, Mosquito colony and maintenance. Each container received twenty early 3rd instar Ae. albopictus in 200 ml sample water. Larvae were inoculated gently using dropper before placing the lid on. Five slots (4 cm each) were cut into the lid with a clean blade for aeration. Larval food (30 mg yeast/L) was provided twice a week which was freshly prepared every time. An additional lab control group was setup in triplicate using […] water. The bioassays were conducted in the sequence of lab control and treatment to minimize the chance of contamination. Water lost due to the evaporation during bioassay was replenished. Adult emergence and pupal mortality were accessed after there was no live lava or pupa in the water. Incomplete emergence or adult with attached exuvia was recorded as pupal death. If lab control had mortality higher than 20% in larval or pupal stages, results were discarded and the experiment was repeated. The experiments were conducted under environmental conditions of 26-28° C., 60-75% RH and LD 16:8 h.
Green house with 2 bays (8×5×2.5 m each) was used for the semi-field assay. One ADS was positioned in the center of each bay and 6 Deli cups (450 mL, black painted from outside) containing 250 mL water each were setup as shown in FIG. 5 and 10% sugar solution was provided in a plastic cup with cotton wick. In each bay, 100 gravid mosquitoes (2 days post blood feeding) were released after the setup of ADS and oviposition containers. The containers were collected and sent for lab bioassay as described above after the 5 day experiment. […] The temperature of 22-30° C. and relative humidity of 45-70% were recorded during the experiment. […]
Efficacy of pyriproxyfen was expressed as mean + standard error % of pupal mortality, which was corrected with control using Abbott's formula (Abbott W. S. (1925) J Econ Entomol; 18: 265-267). […]

[2] = system: 3rd instar Ae. albopictus; assay: Cage experiment: transfer from females to larval habitat, larval bioassay; format: in vivo, Aedes albopictus; details: 2.2 m^3 cage, 50 gravid females, 5 days, all 36 ovicups; powder formulation on transfer mesh
Protocol: In the cage experiment, an autodissemination station equipped with a pyriproxyfen-treated transfer mesh and 450 ml of oak leaf infusion water was centered in a cubic 2.2 m^3 cage. A 360 ml capacity plastic cup was placed in each cage corner 15 cm from the walls. Each of the four cups was filled with 200 ml tap water and oviposition paper strips aligned as described above. Controls used a station with an untreated transfer mesh. Fifty gravid females were then introduced into the cage. After five days, the test was terminated, oviposition papers and eggs discarded, and containers were removed and the water assessed for pyriproxyfen transfer by larval bioassay (see ‘insecticide bioassays’ below). There were three treatment and one control cage per experiment and the experiment was repeated three times, providing a total of 36 test and 12 control ovicups for bioassay. […]
(§2) All insecticidal activity tests were conducted in adult emergence units—450 ml plastic containers with a screen-covered lid and 200 ml of water (water lost via evaporation was replaced before assay). […] At 2-day intervals, ground rat chow (30 mg/L) was provided as food, water lost due to evaporation was replenished, dead and emerged individuals were removed, and successful adult emergence was recorded. Incomplete emergence or adults with attached exuviae were recorded as dead.

Ae. albopictus [3] = details: reported as low as; Gaugler 2012, Sihuincha 2005; cited from earlier work
container mosquitoes = details: modified sticky trap dusted with manually grained 5% pyriproxyfen powder; cited from earlier work
Ae. albopictus [4] = assay: Room assay (31 m^3), biphasic dual treatment ADS; format: in vivo, Aedes albopictus
Protocol: as §1
The test area was scaled up to a larger room (31 m^3) measuring 2.1 m in width, 5.7 m in length and 2.6 m in height. A station was placed in the center of the room and 10 Deli cups (450 mL, black painted from outside) containing 250 ml water were positioned 30 cm from the walls along each side of the room. Fifty gravid females were introduced for a 5-day test. The experiment was conducted under environmental conditions of 26-28° C., 60-75% RH and LD 16:8 h. The cups then were tested for pyriproxyfen activity using larval bioassay as described above. Ten additional untreated cups were included as controls. The pupal mortality in the room trials was analyzed against their respective controls with a t-test (P≤0.05).

Aedes aegypti = details: cited from earlier work
[5] = system: 3rd instar Ae. albopictus; assay: Venereal transfer from contaminated males to females, larval bioassay; format: in vivo, Aedes albopictus; details: venereally acquired pyriproxyfen transferred to water-holding containers
Protocol: This experiment determined whether contaminated mosquitoes could transfer pyriproxyfen to uncontaminated individuals via mating behaviors. To ensure virginity, pupae were individually transferred to 50 ml centrifuge tubes until emergence, and then caged by gender before testing 5-7 days post-emergence. Adult males were exposed to pyriproxyfen-treated filter paper (8×10 cm Whatman No. 1) lining a 50 ml test tube. The paper was coated with 1.5 ml of corn oil as a sticker, blotted to remove excess oil, and then dusted with our pyriproxyfen powder formulation at 0.26 mg/cm of a.i. After ten minutes of exposure, males were transferred from the tube by aspirator to mating containers (450 ml capacity, 7.5 cm depth) covered with mosquito-proof mesh, and allowed to mate with uncontaminated females in pairs. […]
as §2

gravid female = assay: Serial transfer study, biphasic ADS; format: in vivo; details: right after it exited the ADS
Ae. albopictus [6] = assay: Larvicidal LC50 of pyriproxyfen; details: unpublished data
Ae. albopictus [7] = assay: Attachment and persistence of IGR formulations assay, biphasic ADS (residue analysis and larval bioassay); format: in vivo, Aedes albopictus
Source text: A biphasic autodissemination station (ADS) was developed to enhance attraction and contamination of gravid mosquitoes based on the previous version as described in the prior examples with modifications on the transfer chamber, which provided the attracted gravid mosquitoes a unidirectional path and biphasic formulations. The ADS consists of two main parts comprising of a water reservoir at the bottom (adapted from previous version), above which was a transfer chamber with a unidirectional cone inserted in the transfer chamber (FIGS. 12, A & B). The reservoir could hold 600 mL water, which contains dried shredded oak leaves and other materials producing attractants to the gravid mosquitoes. There were overflow protection holes located in the upper part of the reservoir as described in the previous examples. The transfer chamber was constructed with a cardboard mailing tube (101.5×155 mm; Office Depot, N.J. USA), a cotton mesh fabric (39 openings/cm^2) secured within the chamber base by hot glue, a vertical fabric band [43] (20 mm width) glued on top portion inside the transfer chamber and a horizontal flat ring (20 mm width) mounted on the top of the chamber (FIG. 12, B) to provide the base for powder band [46]. […] The spacer size was determined by preliminary study in which the gap size allowed maximum contamination of mosquitoes and minimum number of mosquitoes trapped. […]

Ae. aegypti adults = details: pyriproxyfen dusted plastic containers, public cemetery; cited from earlier work
[8] = system: 3rd instar Ae. albopictus; assay: Room trial (31.1 m^3), single-phase station, larval bioassay; format: in vivo, Aedes albopictus
Protocol: In the room trial, the test arena was scaled-up to a larger area with dimensions of 2.1 (W)×2.6 (H)×5.7 (L) m (31.1 m^3). A station was placed in the center of the room and ovicups with oak infusion and ovistrips were positioned at each corner 30 cm from the walls. Fifty gravid females were introduced for a five day test. The ovistrips and eggs were discarded and the water from each container was tested for insecticidal activity by larval bioassay, with four additional untreated cups as controls. Environmental conditions of 26-28° C., 60-75% RH, and 16L:8D photoperiod. Inhibition of emergence in the cage and room trials was analyzed against their respective controls with a t-test (P≤0.05).
All insecticidal activity tests were conducted in adult emergence units—450 ml plastic containers with a screen-covered lid and 200 ml of water (water lost via evaporation was replaced before assay). Each container held twenty 3rd instar Ae. albopictus. Test containers were incubated at 26° C. and 16L:8D photoperiod. At 2-day intervals, ground rat chow (30 mg/L) was provided as food, water lost due to evaporation was replenished, dead and emerged individuals were removed, and successful adult emergence was recorded. Incomplete emergence or adults with attached exuviae were recorded as dead.

Structure (SMILES): CC(COc1ccc(Oc2ccccc2)cc1)Oc1ccccn1 (stereo not drawn) [pyriproxyfen, 2-[1-methyl-2-(4-phenoxyphenoxy)ethoxy] pyridine]
- containers contaminated (gravid mosquitoes; different field study, 2012, variable pupal mortality): more than 60%
- distance of pyriproxyfen transfer (gravid mosquitoes; field study): 200 m
- pupal mortality (gravid mosquitoes; field study, container with 250 ml water at 200 m): 100%
- average pupal mortality (Ae. albopictus [1]; 6 containers per bay (100 m^3), 100 gravid females, 5 days): 57.1+11.4% and 57.1%
- containers to which pyriproxyfen was transferred (contamination rate) (Ae. albopictus [1]; 12 containers tested): 91.7% and 91.6%
- pupal mortality of the cups with low mortality (Ae. albopictus [1]; cups in area with human disturbance, low RH, less shade): 0-30% and 10-30%
- inhibition of adult emergence [2]: 100%
- LC50 (Ae. albopictus [3]): 0.012 ppb
- mortality (container mosquitoes): 40-70%
- emergence inhibition in each cup (Ae. albopictus [4]; 31 m^3 room, 50 gravid females, 10 oviposition cups): 100%
- pupal mortality in each of the 10 oviposition cups (Ae. albopictus [4]; 31.1 m^3 room, 50 gravid mosquitoes, 5 days): 100%
- pupal mortality in each of the 10 oviposition cups (Ae. albopictus [4]; second prototype (oil and powder bands on one plate)): 100%
- LC50 (Aedes aegypti; Aedes aegypti L.): 0.023 ppb
- LC50 (Aedes aegypti; reported as low as, Gaugler 2012, Sihuincha 2005): 0.012 ppb
- activity relative to temephos (Aedes aegypti; times the activity of temephos): 200 ×
- inhibition of emergence [5]: 48.33±5.87%
- containers contaminated with 100% mortality by one gravid female (gravid female): at least 3 containers
- LC50 (Ae. albopictus [6]): 0.012 ppb
- pupal mortality (Ae. albopictus [7]; 24 h post exposure): 96+1.7% and 96.7%
- emergence inhibition (Ae. albopictus [7]; up to 8 h post exposure, one mosquito per 250 mL water): 100%
- emergence inhibition (Ae. aegypti adults): 42-98%
- pupal mortality ([8]; 31 m^3 room, previous (uniphase) station, 4 oviposition containers with 200 ml water): 81%
- smallest reduction in adult emergence among ovicups ([8]; 31.1 m^3 room): 75%
- inhibition of adult emergence ([8]; 31.1 m^3 room, 50 gravid females, 5 days, 4 ovicups, powder formulation): 81.25%±2.39

Source: US10258027B2, “Autodissemination of an insect-growth regulator for insect management” (Rutgers, The State University of New Jersey, priority 2010, dated 2019)
